Measurements from patent US20210177806A1, “COMBINATION PHARMACEUTICAL, PROPHYLACTIC OR SUPPRESSIVE AGENT FOR DEVELOPMENT OF RESISTANCE TO PYRIMIDINE ANTIMETABOLITE, AND METHOD OF TREATING DISEASE” (FUJIFILM Corporation, priority 2018, published 2021).
Entries after “also recorded” stand apart in the source; their conditions may differ.

Legend:
[1] = tested on: MDS patients; assay: Administration to MDS patients (Examples 2 to 5); format: in vivo; settings: for effect on the development of resistance to pyrimidine antimetabolite: 28-day cycle
Protocol: (§1) Compound A is administered to MDS patients (over 18 years of age) at a dose per one time of 400 mg/m^2 twice a day for 14 days. Administration of azacitidine is started on the day when the administration of Compound A is started. Azacitidine is administered subcutaneously or intravenously at a dose of 75 mg/m^2 for 7 days. The treatment cycle consists of 28 days. After the administration for 7 days, the administration is discontinued for 21 days.
Compound A is administered to MDS patients (over 18 years of age) at a dose per one time of 400 mg/m^2 twice a day for 21 days. Azacitidine is administered subcutaneously or intravenously at a dose of 75 mg/m^2 for 7 days. The treatment cycle consists of 28 days. After the administration for 7 days, the administration is discontinued for 21 days.
as §1, with “time of 300 mg/m^2 twice” for “time of 400 mg/m^2 twice”, “21 days. […] The day of the start of administration of Compound A may be earlier than the day of the start of administration of azacitidine. Furthermore, Compound A may be administered twice a day for 21 days as in Example 3.” for “21 days.”
as §1, with “time of 200 mg/m^2 twice” for “time of 400 mg/m^2 twice”, “21 days. […] The day of the start of administration of Compound A may be earlier than the day of the start of administration of azacitidine. Furthermore, Compound A may be administered twice a day for 21 days as in Example 3.” for “21 days.”
For the MDS patients in Examples 2 to 5, the therapeutic effect is evaluated for the following items in comparison with the outcome of an azacitidine single agent+BSC (Best Supportive Care: Support therapy, transfusion, administration of antibiotics, analgesics, antipyretics, antiemetics, etc. as required) (International Phase III Test “Aza-001”). The period for which the development of resistance to pyrimidine antimetabolite is prevented or suppressed in the above patients is preferably 3 months or more, preferably 4 months or more, preferably 5 months or more, preferably 6 months or more, and preferably 1 year or more.

[2] = tested on: azacitidine-resistant leukemia cell lines; settings: cited from earlier work
[3] = tested on: intracellular CTP (cytidine triphosphate) in leukemia cells (SKM-1); assay: Amount of intracellular CTP in leukemia cells after 4-month exposure; format: cell-based
Protocol: Intracellular CTP (cytidine triphosphate) competes with Aza-CTP (an active metabolite of Aza) and an increased amount of CTP may reduce sensitivity to Aza. […] Then, studies were conducted on the assumption that exposure to Compound A or a salt thereof or a hydrate thereof and Aza for a long time is effective for the recovery or retainment of sensitivity to Aza with the expectation that Compound A or a salt thereof or a hydrate thereof has an inhibitory effect on CTP increase.
The result is that a long-term (4 months) exposure of leukemia cells to a combination of Aza and Compound A.¾ hydrate caused a change in Aza sensitivity. […] Thus, treating an untreated MDS patient with a combination of Aza and Compound A or a salt thereof or a hydrate thereof is considered to be effective for maintaining their sensitivity to Aza.

[4] = tested on: SKM-1 leukemia cell line; assay: Cell proliferation assay for azacitidine after long-term culture (development of resistance); format: cell-based; settings: for sensitivity to azacitidine (dose-response curve) / development of resistance: Aza group: SKM-1 treated 4 months with azacitidine only, 50 nmol/L to 1.6 mol/L
Protocol: SKM-1 (National Institute of Biomedical Innovation, Health and Nutrition) was used as leukemia cell line. Cells were cultured in RPMI 1640 medium (Life Technologies) containing 1% penicillin/streptomycin and 10% fetal bovine serum (FBS) in an environment of 37° C., 5% CO2 and saturated water vapor.
The respective cultures were subjected to long-term culture. The concentration of azacitidine was 50 nmol/L at the start and was doubled at 2-4 week intervals. When cultured for 2 weeks after the azacitidine concentration had reached […], the treated groups were subjected to an assay for cell proliferation for azacitidine.
In the cell proliferation assay, cells were first suspended in a medium so that the number of cells was 111,111 cells/mL, and 90 μL (10,000 cells) each of the resultant was seeded in a 96-well plate (Corning Incorporated) per well. Next, 10 μL of a PBS solution of azacitidine (0, 3, 10, 30, 100 or 300 μmon) was added to the plate, and the cells were cultured in an environment of 37° C., 5% CO2 and saturated water vapor for 72 hours.
The relative number of the cancer cells after the above incubation was measured in terms of emission intensity using Cell Titer Glo (Promega Corporation) reagent by a plate reader (Envision, PerkinElmer Inc.). With the number of cells at a concentration of azacitidine of 0 μmol/L as 100% and the emission intensity of the sample to which no cells were added as 0%, the relative value of emission intensity was calculated at each azacitidine concentration. The results of each group were plotted with the azacitidine concentration (mon) on the horizontal axis and the emission intensity (relative value) on the vertical axis.
Aza: SKM-1 cells treated for 4 months with gradual increase in the concentration of azacitidine (50 nmol/L to […]) Aza+A1: SKM-1 cells which were treated in the same manner as in the Aza group and to which Compound A was added at 1 μmon throughout the period of treatment. Aza+A10: SKM-1 cells which were treated in the same manner as in the Aza group and to which Compound A was added at 1 μmon throughout the period of treatment

[5] = tested on: MDS patients; settings: AZA-001 test, cited from earlier work

In the case of `NC(=O)c1nc[nH]c1O` [Compound A, 5-Hydroxy-1H-imidazole-4-carboxamide], the “effect on the development of resistance to pyrimidine antimetabolite” value (shortened to “effect … to pyrimidine antimetabolite”) ([1]; Example 2: Compound A 400 mg/m^2 twice a day for 14 days with azacitidine 75 mg/m^2 for 7 days) is reported as “prophylactic or suppressive effect”, the “effect … to pyrimidine antimetabolite” value ([1]; Example 3: Compound A 400 mg/m^2 twice a day for 21 days with azacitidine 75 mg/m^2 for 7 days) is reported as “prophylactic or suppressive effect” and the “side effects in patients” value ([1]; Example 4: Compound A 300 mg/m^2 twice a day for 14 days with azacitidine) is reported as “side effects in patients can be reduced”. The “effect … to pyrimidine antimetabolite” value ([1]; Example 4: Compound A 300 mg/m^2 twice a day for 14 days with azacitidine 75 mg/m^2 for 7 days) was “prophylactic or suppressive effect”, the “side effects in patients” value ([1]; Example 5: Compound A 200 mg/m^2 twice a day for 14 days with azacitidine) was “side effects in patients can be reduced” and the “effect … to pyrimidine antimetabolite” value ([1]; Example 5: Compound A 200 mg/m^2 twice a day for 14 days with azacitidine 75 mg/m^2 for 7 days) was “prophylactic or suppressive effect”. For the same compound, the “cell growth inhibitory activity / cross resistance” value [2] was “cell growth inhibitory activity without cross resistance”, the “amount of intracellular CTP” value ([3]; Aza and Compound A combined from the start of the treatment) was “kept at a level similar to that in untreated cells” and the “effect on the development of resistance to Aza” value ([4]; 4-month exposure of naive SKM-1 to Aza and Compound A (1 mon or 10 μmon)) was “prophylactic or suppressive effect; also recorded: almost complete elimination of the development of resistance to Aza”. For the same compound, the “sensitivity to azacitidine (dose-response curve)” value ([4]; Aza+A1 group: treated as Aza group plus Compound A at 1 μmon throughout) was “almost the same as that of the control group” and the “sensitivity to azacitidine (dose-response curve)” value ([4]; Aza+A10 group: treated as Aza group plus Compound A at 10 mon throughout) was “almost the same as that of the control group”.

In the case of `Nc1ncn([C@@H]2O[C@H](CO)[C@@H](O)[C@H]2O)c(=O)n1` [azacitidine, 4-amino-1-β-D-ribofuranosyl-1,3,5-triazin-2(1H)-one], the 2-year survival rate [5] is listed as 50.8%, the “Hematologic response rate according to IWG criteria (2000 edition)” value [5] is listed as 6.7% and the “Hematological improvement according to IWG criteria (2000 edition)” value [5] is listed as 49.2%. For the same compound, the “Median time of AML transformation” value [5] was 20.7 months, the “Median time of AML transformation or death” value [5] was 13.0 months and the “Survival (median)” value [5] was 24.5 months. For the same compound, the “patients who achieved platelet transfusion-independence from dependence” value ([5]; no platelet transfusions for consecutive 56 days or more) was 42.1%, the “patients who achieved red blood cell transfusion-independence from dependence” value ([5]; no red blood cell transfusions for consecutive 56 days or more) was 45.0% and the “amount of intracellular CTP” value ([3]; 4-month exposure to only Aza) was “an increase in the amount of intracellular CTP”. The “sensitivity to azacitidine (dose-response curve) / development of resistance” value [4] was “the dose-response curve shifted to the right”, the “sensitivity to azacitidine (dose-response curve) / development of resistance” value ([4]; listed as Aza) was “resulting in the development of resistance” and the “emission intensity (relative value) / number of viable cells” value ([4]; SKM-1, all groups, azacitidine 72 hours, Cell Titer Glo) was “decreased azacitidine concentration-dependently”.
